The compounds below were run against PI3-kinase p110-delta/p85-alpha (Homo sapiens, UniProt O00329) (assay: Inhibition of His-tagged full-length recombinant human PIK3CD/PIK3R1 extracted from baculovirus expression system incubated for 1 hr by FRET assay).
PI3-kinase p110-delta/p85-alpha, sequence (P27986 whole entry): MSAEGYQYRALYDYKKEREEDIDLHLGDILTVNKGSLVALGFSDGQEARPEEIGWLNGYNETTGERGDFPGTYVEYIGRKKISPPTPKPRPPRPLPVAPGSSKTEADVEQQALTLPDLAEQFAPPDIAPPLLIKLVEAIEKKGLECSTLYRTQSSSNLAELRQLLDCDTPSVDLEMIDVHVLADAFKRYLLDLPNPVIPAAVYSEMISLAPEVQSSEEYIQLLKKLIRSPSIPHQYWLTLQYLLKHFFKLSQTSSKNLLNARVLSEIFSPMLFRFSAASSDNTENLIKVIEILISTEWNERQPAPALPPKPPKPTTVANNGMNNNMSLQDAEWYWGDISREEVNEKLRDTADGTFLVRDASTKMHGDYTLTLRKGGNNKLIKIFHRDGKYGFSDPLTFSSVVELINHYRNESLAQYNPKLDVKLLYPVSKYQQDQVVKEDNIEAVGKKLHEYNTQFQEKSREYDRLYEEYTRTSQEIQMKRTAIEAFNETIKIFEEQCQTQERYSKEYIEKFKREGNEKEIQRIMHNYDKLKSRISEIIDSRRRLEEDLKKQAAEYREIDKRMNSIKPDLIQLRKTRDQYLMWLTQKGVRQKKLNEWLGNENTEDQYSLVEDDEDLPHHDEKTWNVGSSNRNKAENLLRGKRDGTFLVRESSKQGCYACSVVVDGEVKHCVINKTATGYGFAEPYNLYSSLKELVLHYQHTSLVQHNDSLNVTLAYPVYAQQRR
PI3-kinase p110-delta/p85-alpha, sequence (O00329 whole entry): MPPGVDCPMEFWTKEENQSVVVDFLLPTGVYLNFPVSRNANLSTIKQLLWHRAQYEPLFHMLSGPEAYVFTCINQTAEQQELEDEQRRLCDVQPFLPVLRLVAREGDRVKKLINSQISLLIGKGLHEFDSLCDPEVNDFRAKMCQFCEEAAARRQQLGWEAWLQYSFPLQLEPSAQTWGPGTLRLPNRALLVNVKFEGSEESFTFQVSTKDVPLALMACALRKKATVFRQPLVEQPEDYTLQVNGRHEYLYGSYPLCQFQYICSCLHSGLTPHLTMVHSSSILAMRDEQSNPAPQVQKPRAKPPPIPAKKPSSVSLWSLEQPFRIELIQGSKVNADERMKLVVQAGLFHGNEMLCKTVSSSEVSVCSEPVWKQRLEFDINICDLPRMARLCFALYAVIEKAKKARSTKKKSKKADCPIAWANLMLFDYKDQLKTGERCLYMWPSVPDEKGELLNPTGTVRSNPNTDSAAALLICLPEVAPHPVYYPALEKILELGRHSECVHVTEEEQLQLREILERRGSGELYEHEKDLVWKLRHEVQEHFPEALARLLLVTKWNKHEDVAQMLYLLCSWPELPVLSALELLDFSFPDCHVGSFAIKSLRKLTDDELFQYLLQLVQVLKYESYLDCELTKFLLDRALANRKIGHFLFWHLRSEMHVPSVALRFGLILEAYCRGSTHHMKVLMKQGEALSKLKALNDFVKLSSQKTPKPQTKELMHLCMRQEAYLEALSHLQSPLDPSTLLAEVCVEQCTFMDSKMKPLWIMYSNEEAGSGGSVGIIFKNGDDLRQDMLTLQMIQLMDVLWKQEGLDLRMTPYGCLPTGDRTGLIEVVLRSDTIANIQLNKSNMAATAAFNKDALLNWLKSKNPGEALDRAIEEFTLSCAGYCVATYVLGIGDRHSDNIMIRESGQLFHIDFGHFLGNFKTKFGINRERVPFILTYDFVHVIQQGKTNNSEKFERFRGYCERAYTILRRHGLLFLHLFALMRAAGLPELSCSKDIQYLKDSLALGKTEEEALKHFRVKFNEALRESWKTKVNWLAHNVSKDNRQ

| Structure (SMILES) | IC50 [nM] |
| --- | --- |
| Cc1ccc(-c2ccn3nc(N)nc3c2)c(F)c1C(=O)NC(CF)CC(O)c1ccc(Cl)cc1 (stereo not drawn) | > 15 |
| Cc1ccc(-c2ccn3nc(N)nc3c2)c(F)c1C(=O)NC[C@@H](F)[C@H](O)c1ccc(Cl)cc1 | > 15 |
| Cc1ccc(-c2ccn3nc(N)nc3c2)c(F)c1C(=O)NCCC(O)c1ccc(Cl)cn1 (stereo not drawn) | > 15 |
| Cc1cc(F)c(-c2ccn3nc(N)nc3c2)cc1C(=O)NCCC(O)c1ccc(C(F)(F)F)cc1 (racemic) | > 15 |
| Cc1ccc(-c2ccn3nc(N)nc3c2)c(F)c1C(=O)NCCC(F)c1ccc(Cl)cc1 (racemic) | > 15 |
| Cc1ccc(-c2ccn3nc(N)nc3c2)c(F)c1C(=O)NCC(F)(F)C(O)C1CC(F)(F)C1 (single isomer, unassigned) | > 15 |
| COc1c(F)cccc1C(O)CCNC(=O)c1c(C)ccc(-c2ccn3nc(N)nc3c2)c1F (single isomer, unassigned) | 15 |
| Cc1ccc(-c2ccn3nc(N)nc3c2)c(F)c1C(=O)NCC(F)(F)C(O)c1ccc(Cl)c(Cl)c1 (single isomer, unassigned) | > 15 |

Source: ChEMBL document CHEMBL6153162, “Receptor-Interacting Protein Kinase 1 (RIPK1) Inhibitors as Potential Treatment for Several Inflammatory and Neurodegenerative Diseases” (ACS Med Chem Lett, 2025)
